Where “and” joins values, the source holds several entries; their conditions need not be identical. Equal values may be shown once. Starred links: 1 amine or outer side, 2 acyl side, 3 side chain; linkers in the order of their positions; H or OH if unused. Positions of bridges follow the written chain, without caps; N, C: chain ends. Non-standard residues stand in square brackets, D forms with d. Residues, ends and D or L forms follow the SMILES beside them. Trp(2-yl) = O=C([C@H](Cc1c([*:3])[nH]c2ccccc12)N[*:1])[*:2]; Pro(4R-SH) = O=C([C@@H]1C[C@@H](S[*:3])CN1[*:1])[*:2]; Ile(4R-OH,5-OH) = C[C@H]([C@H](N)C(=O)O)[C@@H](O)CO; X1 = N#C[C@@H]1C[C@@H](C(=O)[*:2])N([*:1])C1
Assays:
[1] = Viability assay against CHO cells (MTT colorimetric assay); format: cell-based, Chinese hamster; details: Chinese hamster, CHO cells, 72 h, replicates n = 1, 2, 3, read-out: % viable cells; for viability at 72 h, 1e-05 M: 1e-005 M; for viability at 72 h, 1.25e-06 M: 1.25e-006 M; for viability at 72 h, 1.56e-07 M: 1.56e-007 M; for viability at 72 h, 2e-05 M: 2e-005 M; for viability at 72 h, 2.5e-06 M: 2.5e-006 M; for viability at 72 h, 3.125e-07 M: 3.125e-007 M; for viability at 72 h, 5e-06 M: 5e-006 M; for viability at 72 h, 6.25e-07 M: 6.25e-007 M
CHO cells = assay: as above; format: cell-based, Chinese hamster; details: 72 h, replicates n = 1, 2, 3
Pol II = molecular target: T1, Pol II (Homo sapiens, UniProt P24928); assay: In vitro transcription runoff assay using HeLaScribe nuclear extract; format: biochemical; details: for Transcription activity E (%): mean ± standard deviation
T1 construct: HeLaScribe® nuclear extract containing Pol II and all other transcription factors; purchased Promega; host or cells: HeLa nuclear extract (endogenous protein)

[2] = IC50 (nM), Table 11, 3 parameter logistic fit
[3] = IC50 (nM), Table 12, n = 3, high values estimated from activity at [I]=1.0 μM

SMILES	viability at 72 h, 1e-05 M [1] [%]	viability at 72 h, 1.25e-06 M [1] [%]	viability at 72 h, 1.56e-07 M [1] [%]	viability at 72 h, 2e-05 M [1] [%]	viability at 72 h, 2.5e-06 M [1] [%]	viability at 72 h, 3.125e-07 M [1] [%]	viability at 72 h, 5e-06 M [1] [%]	viability at 72 h, 6.25e-07 M [1] [%]	Transcription activity E (%) (Pol II; 10 nM)	Transcription activity E (%) (Pol II; 30 nM)	Transcription activity E (%) (Pol II; 100 nM)	Transcription activity E (%) (Pol II; 300 nM)	Transcription activity E (%) (Pol II; 1000 nM)	IC50 (Pol II; [2]) [nM]	IC50 (Pol II; [3]) [nM]	also measured
CC[C@H](C)[C@@H]1NC(=O)CNC(=O)[C@@H]2Cc3c([nH]c4ccccc34)SC[C@H](NC(=O)CNC1=O)C(=O)N[C@@H](CC(N)=O)C(=O)N1C[C@H](C#N)C[C@H]1C(=O)N[C@@H]([C@@H](C)[C@@H](O)CO)C(=O)N2 [Compound 4, CN-Pro-amanitin] (cyclo(CN[X1][Ile(4R-OH,5-OH)][Trp(2-yl)]GIG); thioether 1-5)	110	102	102	121	101	99	103	102	80.7 ± 7.9	64.8 ± 7.4	74.0 ± 13.0	72.4 ± 9.7	52.3 ± 17.0	480 ± 380	480 ± 380	% viable cells (CHO cells; 1e-005 M, listed as CN-Pro-amanitin (4)): 90%; % viable cells (CHO cells; 1.25e-006 M, listed as CN-Pro-amanitin (4)): 91% and 92%; % viable cells (CHO cells; 1.56e-007 M, listed as CN-Pro-amanitin (4)): 93% and 87%; % viable cells (CHO cells; 2e-005 M, listed as CN-Pro-amanitin (4)): 118% and 108%; % viable cells (CHO cells; 2.5e-006 M, listed as CN-Pro-amanitin (4)): 91% and 87%; % viable cells (CHO cells; 3.125e-007 M, listed as CN-Pro-amanitin (4)): 92% and 90%; % viable cells (CHO cells; 5e-006 M, listed as CN-Pro-amanitin (4)): 92% and 90%; % viable cells (CHO cells; 6.25e-007 M, listed as CN-Pro-amanitin (4)): 89% and 92%
CC[C@H](C)[C@@H]1NC(=O)CNC(=O)[C@@H]2Cc3c([nH]c4ccccc34)SC[C@H](NC(=O)CNC1=O)C(=O)N[C@@H](CC(N)=O)C(=O)N1C[C@H](S)C[C@H]1C(=O)N[C@@H]([C@@H](C)[C@@H](O)CO)C(=O)N2 [Compound 5, SH-Pro-amanitin] (cyclo(CN[Pro(4R-SH)][Ile(4R-OH,5-OH)][Trp(2-yl)]GIG); thioether 1-5)	94	93	93	106	91	94	100	98	78.5 ± 26.6	99.6 ± 11.6	91.2 ± 18.5	71.2 ±19.0	50.3 ± 20.8	910 ± 330	910 ± 330	viability at 72 h, 7.8e-08 M ([1]; 7.8e-008 M): 94%; % viable cells (CHO cells; 1e-005 M, listed as SH-Pro-amanitin (5)): 95%; % viable cells (CHO cells; 1.25e-006 M, listed as SH-Pro-amanitin (5)): 92%; % viable cells (CHO cells; 2e-005 M, listed as SH-Pro-amanitin (5)): 97%; % viable cells (CHO cells; 2.5e-006 M, listed as SH-Pro-amanitin (5)): 99%; % viable cells (CHO cells; 3.125e-007 M, listed as SH-Pro-amanitin (5)): 90%; % viable cells (CHO cells; 5e-006 M, listed as SH-Pro-amanitin (5)): 90% and 96%; % viable cells (CHO cells; 6.25e-007 M, listed as SH-Pro-amanitin (5)): 92% and 95%; % viable cells (CHO cells; 7.8e-008 M, listed as SH-Pro-amanitin (5)): 89%; IC50 (Pol II; IC50): 910 ± 230 nM

From patent US20240082416A1, “AMATOXIN ANALOGS AND USES THEREOF” (THE UNIVERSITY OF BRITISH COLUMBIA, priority 2020, published 2024)
